Data published in US12655120B2, “GPR52 modulator compounds” (NXERA PHARMA UK LIMITED, priority 2020, dated 2026).

Molecular target: T1, human GPR52 (Homo sapiens, UniProt Q9Y2T5)
T1 construct: expressed in transfected cells; host or cells: HEKf suspension cells infected with BacMam virus
Assay: GPR52 Agonist Functional cAMP Assay
Type: cell-based
Details: for EC50: HEKf cells infected with human GPR52 BacMam, HTRF cAMP, 30 min at 37° C., read-out: pEC50 average (converted); for Emax: normalised to DMSO (0%) and maximal compound 7m (J. Med. Chem., 2014, 57, 5226) response (100%)
Description: HEKf suspension cells were infected for 24 h with 0.1% v/v human GPR52 expressing BacMam virus, a modified baculovirus designed for mammalian gene expression. Following BacMam infection, cells were pelleted by centrifugation (335 g, 5 min), resuspended in cell freezing medium (Sigma) and frozen at −150° C. until required. On experiment day, 25 nL GPR52 compound dilutions, prepared in DMSO, were stamped onto proxiplates (PerkinElmer) by a LabCyte ECHO acoustic dispenser. Frozen cells were thawed and resuspended in assay stimulation buffer (Cisbio) containing 0.5 mM 3-iso-butyl-1-methylxanthine (IBMX, Sigma) to achieve a density of 2000 cells per well. 10 μl cells were added to assay plates using a Multidrop Combi Reagent Dispenser (ThermoFisher) before centrifugation (335 g, 1 min). Cells were incubated with compounds at 37° C. for 30 min prior to addition of cAMP detection reagents (HiRange cAMP kit, Cisbio) which were prepared according to the manufacturer's instructions. Plates were shaken for 1 h at room temperature before reading on a PHERAstar FS plate reader (BMG Labtech) using standard HTRF settings. HTRF ratios were obtained by dividing the acceptor emissions (665 nm) by the donor emissions (620 nm) and multiplying by 10,000.

T1 sequence (Q9Y2T5 whole entry): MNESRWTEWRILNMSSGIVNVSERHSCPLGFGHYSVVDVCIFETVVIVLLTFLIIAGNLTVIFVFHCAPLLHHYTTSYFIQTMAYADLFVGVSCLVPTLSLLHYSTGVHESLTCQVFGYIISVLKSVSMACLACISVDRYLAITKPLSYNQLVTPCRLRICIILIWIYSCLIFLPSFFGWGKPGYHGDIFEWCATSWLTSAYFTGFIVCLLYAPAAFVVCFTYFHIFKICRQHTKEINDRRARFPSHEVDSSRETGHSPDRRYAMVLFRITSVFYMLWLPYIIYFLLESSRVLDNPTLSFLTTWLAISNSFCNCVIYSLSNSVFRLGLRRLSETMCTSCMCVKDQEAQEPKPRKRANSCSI

SMILES | EC50 [nM] | Emax [%]
O=C(c1ccn(-c2cc(Cc3cc(F)cc(C(F)(F)F)c3)ccn2)n1)N1CCCC1 [Example 33, (1-(4-(3-fluoro-5-(trifluoromethyl)benzyl)pyridin-2-yl)-1H-pyrazol-3-yl)(pyrrolidin-1-yl)methanone] | 126 | 87
O=C(NC1COC1)c1ccn(-c2cc(Cc3cc(F)cc(C(F)(F)F)c3)ccn2)n1 [Example 34, 1-(4-(3-fluoro-5-(trifluoromethyl)benzyl)pyridin-2-yl)-N-(oxetan-3-yl)-1H-pyrazole-3-carboxamide] | 631 | 77
O=C(NCCO)c1ccn(-c2cc(Cc3cc(F)cc(C(F)(F)F)c3)ccn2)n1 [Example 35, 1-(4-(3-fluoro-5-(trifluoromethyl)benzyl)pyridin-2-yl)-N-(2-hydroxyethyl)-1H-pyrazole-3-carboxamide] | 398 | 83
COCCNC(=O)c1ccn(-c2cc(Cc3cc(F)cc(C(F)(F)F)c3)ccn2)n1 [Example 36, 1-(4-(3-fluoro-5-(trifluoromethyl)benzyl)pyridin-2-yl)-N-(2-methoxyethyl)-1H-pyrazole-3-carboxamide] | 126 | 87
Cc1nn(-c2cc(Cc3cc(F)cc(C(F)F)c3)ccn2)cc1C(N)=O [Example 37, 1-(4-(3-(difluoromethyl)-5-fluorobenzyl)pyridin-2-yl)-3-methyl-1H-pyrazole-4-carboxamide] | 79.4 | 96
NC(=O)c1ccn(-c2cc(Cc3cc(F)cc(C(F)F)c3)ccn2)n1 [Example 38, 1-(4-(3-(difluoromethyl)-5-fluorobenzyl)pyridin-2-yl)-1H-pyrazole-3-carboxamide] | 20 | 93
Cc1nn(-c2cc(Cc3cc(F)cc(C(F)(F)F)c3)ccn2)c(CO)c1C(=O)NCCO [Example 40, 1-(4-(3-fluoro-5-(trifluoromethyl)benzyl)pyridin-2-yl)-N-(2-hydroxyethyl)-5-(hydroxymethyl)-3-methyl-1H-pyrazole-4-carboxamide] |  | 101
Cc1nn(-c2ccnc(Cc3cc(F)cc(C(F)(F)F)c3)c2)c(CO)c1C(N)=O [Example 41, 1-(2-(3-fluoro-5-(trifluoromethyl)benzyl)pyridin-4-yl)-5-(hydroxymethyl)-3-methyl-1H-pyrazole-4-carboxamide] |  | 98
Cc1nn(-c2ccnc(Cc3cc(F)cc(C(F)(F)F)c3)c2)c(CO)c1C(=O)NCCO [Example 42, 1-(2-(3-fluoro-5-(trifluoromethyl)benzyl)pyridin-4-yl)-N-(2-hydroxyethyl)-5-(hydroxymethyl)-3-methyl-1H-pyrazole-4-carboxamide] |  | 100
CNC(=O)c1c(C)nn(-c2cc(Cc3cc(F)cc(C(F)(F)F)c3)ccn2)c1CO [Example 43, 1-(4-(3-fluoro-5-(trifluoromethyl)benzyl)pyridin-2-yl)-5-(hydroxymethyl)-N,3-dimethyl-1H-pyrazole-4-carboxamide] |  | 101
Cc1nn(-c2cc(Cc3cc(F)cc(C(F)F)c3)ccn2)c(CO)c1C(N)=O [Example 44, 1-(4-(3-(difluoromethyl)-5-fluorobenzyl)pyridin-2-yl)-5-(hydroxymethyl)-3-methyl-1H-pyrazole-4-carboxamide] |  | 101
CNC(=O)c1cn(-c2cc(Cc3cc(F)cc(C(F)F)c3)ccn2)nc1C [Example 45, 1-(4-(3-(difluoromethyl)-5-fluorobenzyl)pyridin-2-yl)-N,3-dimethyl-1H-pyrazole-4-carboxamide] | 200 | 91
CNC(=O)c1ccn(-c2cc(Cc3cc(F)cc(C(F)F)c3)ccn2)n1 [Example 46, 1-(4-(3-(difluoromethyl)-5-fluorobenzyl)pyridin-2-yl)-N-methyl-1H-pyrazole-3-carboxamide] | 50.1 | 88
NC(=O)c1cn(-c2cccc(Cc3cc(F)cc(C(F)(F)F)c3)n2)nc1CO [Example 47, 1-(6-(3-fluoro-5-(trifluoromethyl)benzyl)pyridin-2-yl)-3-(hydroxymethyl)-1H-pyrazole-4-carboxamide] | 501 | 52
